{"source": "patent US20150344540A1", "about": "“NOVEL GLP-1 RECEPTOR AGONISTS WITH CHOLESTEROL EFFLUX ACTIVITY” (NOVO NORDISK A/S, priority 2012, published 2015)", "tested_on": "Mouse monocyte/macrophage cell line, RAW 264.7", "assay": "Cholesterol efflux assay (3H-cholesterol, macrophage cell line)", "type": "cell-based", "conditions": "RAW 264.7, 4 hrs incubation, 0.1% human serum albumin; for 4 h Cholesterol Efflux Emax: ABCA1-mediated efflux; for EC50: read-out: 4 h Cholesterol Efflux EC50, ABCA1-mediated efflux (CPT-cAMP induced minus non-induced)", "note": "Where a SMILES comes first, the peptide text is derived from it. [ ]: non-standard residue; d: D form. Aib = CC(C)(N)C(=O)O"}
{"compound": "CC[C@H](C)[C@H](NC(=O)[C@H](Cc1ccccc1)NC(=O)[C@H](CCC(=O)O)NC(=O)[C@H](CCCNC(=N)N)NC(=O)[C@@H](NC(=O)[C@H](C)NC(=O)[C@H](CCC(=O)O)NC(=O)CNC(=O)[C@H](CCC(=O)O)NC(=O)[C@H](CCSC)NC(=O)[C@H](CCC(N)=O)NC(=O)[C@H](CCCCN)NC(=O)[C@H](CO)NC(=O)[C@H](CC(C)C)NC(=O)[C@H](CC(=O)O)NC(=O)[C@H](CO)NC(=O)[C@@H](NC(=O)[C@H](Cc1ccccc1)NC(=O)[C@@H](NC(=O)CNC(=O)[C@H](CCC(=O)O)NC(=O)C(C)(C)NC(=O)[C@@H](N)Cc1c[nH]cn1)[C@@H](C)O)[C@@H](C)O)C(C)C)C(=O)N[C@@H](CCC(=O)O)C(=O)N[C@@H](Cc1c[nH]c2ccccc12)C(=O)N[C@@H](CC(C)C)C(=O)N[C@@H](CCCCN)C(=O)N[C@@H](CC(N)=O)C(=O)N[C@@H](CCCCN)C(=O)NC(C)(C)C(=O)N[C@@H](CC(C)C)C(=O)N[C@@H](CCC(=O)O)C(=O)N[C@@H](Cc1ccccc1)C(=O)N[C@@H](CC(C)C)C(=O)N[C@@H](CCC(=O)O)C(=O)N[C@@H](CC(C)C)C(=O)N[C@@H](CC(C)C)C(N)=O", "note": "[Compound 2, [Aib2, Glv16,Glu21,Lys29,Aib30,Leu31,Glu32,Phe33,Leu34,Glu35,Leu36,Leu371-Exendin-4-(1-37)-peptide amide] (H-H[Aib]EGTFTSDLSKQMEGEAVREFIEWLKNK[Aib]LEFLELL-NH2; N-terminus assumed)", "values": [{"measurement": "4 h Cholesterol Efflux Emax", "result": 83, "unit": "%"}]}
{"compound": "CC[C@H](C)[C@H](NC(=O)[C@H](Cc1ccccc1)NC(=O)[C@H](CCC(=O)O)NC(=O)[C@H](CCCCN)NC(=O)[C@@H](NC(=O)[C@H](C)NC(=O)[C@H](CCC(=O)O)NC(=O)CNC(=O)[C@H](CCC(=O)O)NC(=O)[C@H](CC(C)C)NC(=O)[C@H](Cc1ccc(O)cc1)NC(=O)[C@H](CO)NC(=O)[C@H](CO)NC(=O)[C@@H](NC(=O)[C@H](CC(=O)O)NC(=O)[C@H](CO)NC(=O)[C@@H](NC(=O)[C@H](Cc1ccccc1)NC(=O)[C@@H](NC(=O)CNC(=O)[C@H](CCC(=O)O)NC(=O)C(C)(C)NC(=O)[C@@H](N)Cc1c[nH]cn1)[C@@H](C)O)[C@@H](C)O)C(C)C)C(C)C)C(=O)N[C@@H](C)C(=O)N[C@@H](Cc1c[nH]c2ccccc12)C(=O)N[C@@H](CC(C)C)C(=O)N[C@@H](CC(C)C)C(=O)N[C@@H](CCC(=O)O)C(=O)N[C@@H](CCCCN)C(=O)NC(C)(C)C(=O)N[C@@H](CCCCN)C(=O)N[C@@H](CCC(=O)O)C(=O)N[C@@H](Cc1c[nH]c2ccccc12)C(=O)N[C@@H](CC(C)C)C(N)=O", "note": "[Compound 89, [Aib8,Glu23,Val25,Leu33,Glu34,Lys35,Aib36,Lys37]-GLP-1-(7-37)-peptidyl-Glu-Trp-Leu amide] (H-H[Aib]EGTFTSDVSSYLEGEAVKEFIAWLLEK[Aib]KEWL-NH2)", "values": [{"measurement": "4 h Cholesterol Efflux Emax", "result": 102, "unit": "%"}]}
{"compound": "CC[C@H](C)[C@H](NC(=O)[C@H](Cc1ccccc1)NC(=O)[C@H](CCC(=O)O)NC(=O)[C@H](CCCCN)NC(=O)[C@@H](NC(=O)[C@H](C)NC(=O)[C@H](CCCCN)NC(=O)CNC(=O)[C@H](CCC(=O)O)NC(=O)[C@H](CC(C)C)NC(=O)[C@H](Cc1ccc(O)cc1)NC(=O)[C@H](CO)NC(=O)[C@H](CO)NC(=O)[C@@H](NC(=O)[C@H](CC(=O)O)NC(=O)[C@H](CO)NC(=O)[C@@H](NC(=O)[C@H](Cc1ccccc1)NC(=O)[C@@H](NC(=O)CNC(=O)[C@H](CCC(=O)O)NC(=O)C(C)(C)NC(=O)[C@@H](N)Cc1c[nH]cn1)[C@@H](C)O)[C@@H](C)O)C(C)C)C(C)C)C(=O)N[C@@H](C)C(=O)N[C@@H](Cc1c[nH]c2ccccc12)C(=O)N[C@@H](CC(C)C)C(=O)N[C@H](C(=O)N[C@@H](CCC(=O)O)C(=O)N[C@@H](CCCCN)C(=O)NC(C)(C)C(=O)N[C@@H](CCCCN)C(=O)N[C@@H](CCC(=O)O)C(=O)N[C@@H](Cc1ccccc1)C(=O)N[C@@H](CC(C)C)C(N)=O)C(C)C", "note": "[Compound 90, [Aib8,Lys23,Val25,Glu34,Lys35,Aib36,Lys37]-GLP-1-(7-37)-peptidyl-Glu-Phe-Leu amide] (H-H[Aib]EGTFTSDVSSYLEGKAVKEFIAWLVEK[Aib]KEFL-NH2; N-terminus assumed)", "values": [{"measurement": "4 h Cholesterol Efflux Emax", "result": 110, "unit": "%"}]}
{"compound": "CC[C@H](C)[C@H](NC(=O)[C@H](Cc1ccccc1)NC(=O)[C@H](CCC(=O)O)NC(=O)[C@H](CCCCN)NC(=O)[C@@H](NC(=O)[C@H](C)NC(=O)[C@H](CCC(=O)O)NC(=O)CNC(=O)[C@H](CCC(=O)O)NC(=O)[C@H](CC(C)C)NC(=O)[C@H](Cc1ccc(O)cc1)NC(=O)[C@H](CO)NC(=O)[C@H](CO)NC(=O)[C@@H](NC(=O)[C@H](CC(=O)O)NC(=O)[C@H](CO)NC(=O)[C@@H](NC(=O)[C@H](Cc1ccccc1)NC(=O)[C@@H](NC(=O)CNC(=O)[C@H](CCC(=O)O)NC(=O)C(C)(C)NC(=O)[C@@H](N)Cc1c[nH]cn1)[C@@H](C)O)[C@@H](C)O)C(C)C)C(C)C)C(=O)N[C@@H](C)C(=O)N[C@@H](Cc1c[nH]c2ccccc12)C(=O)N[C@@H](CC(C)C)C(=O)N[C@H](C(=O)N[C@@H](CCC(=O)O)C(=O)N[C@@H](CCCCN)C(=O)NC(C)(C)C(=O)N[C@@H](CCCCN)C(=O)N[C@@H](CCC(=O)O)C(=O)N[C@@H](Cc1ccccc1)C(=O)N[C@@H](CC(C)C)C(=O)N[C@@H](CCC(=O)O)C(=O)O)C(C)C", "note": "[Compound 100, [Aib8,Glu23,Val25,Glu34,Lys35,Aib36,Lys37]-GLP-1-(7-37)-peptidyl-Glu-Phe-Leu-Glu]", "values": [{"measurement": "4 h Cholesterol Efflux Emax", "result": 104, "unit": "%"}, {"measurement": "EC50", "result": 690, "unit": "nM"}]}
{"compound": "CC[C@H](C)[C@H](NC(=O)[C@H](Cc1ccccc1)NC(=O)[C@H](CC(=O)O)NC(=O)[C@H](CCCCN)NC(=O)[C@@H](NC(=O)[C@H](C)NC(=O)[C@H](CC(=O)O)NC(=O)CNC(=O)[C@H](CCC(=O)O)NC(=O)[C@H](CC(C)C)NC(=O)[C@H](Cc1ccc(O)cc1)NC(=O)[C@H](CO)NC(=O)[C@H](CO)NC(=O)[C@@H](NC(=O)[C@H](CC(=O)O)NC(=O)[C@H](CO)NC(=O)[C@@H](NC(=O)[C@H](Cc1ccccc1)NC(=O)[C@@H](NC(=O)CNC(=O)[C@H](CCC(=O)O)NC(=O)C(C)(C)NC(=O)[C@@H](N)Cc1c[nH]cn1)[C@@H](C)O)[C@@H](C)O)C(C)C)C(C)C)C(=O)N[C@@H](C)C(=O)N[C@@H](Cc1c[nH]c2ccccc12)C(=O)N[C@@H](CC(C)C)C(=O)N[C@H](C(=O)N[C@@H](CCC(=O)O)C(=O)N[C@@H](CCCCN)C(=O)NC(C)(C)C(=O)N[C@@H](CCCCN)C(=O)N[C@@H](CCC(=O)O)C(=O)N[C@@H](Cc1ccccc1)C(=O)N[C@@H](CC(C)C)C(N)=O)C(C)C", "note": "[Compound 18, [Aib8,Asp23,Val25,Asp27,Glu34,Lys35,Aib36,Lys37]-GLP-1-(7-37)-peptidyl-Glu-Phe-Leu amide] (H-H[Aib]EGTFTSDVSSYLEGDAVKDFIAWLVEK[Aib]KEFL-NH2)", "values": [{"measurement": "4 h Cholesterol Efflux Emax", "result": 89, "unit": "%"}]}
{"compound": "CC[C@H](C)[C@H](NC(=O)[C@H](Cc1ccccc1)NC(=O)[C@H](CCC(=O)O)NC(=O)[C@H](CCCNC(=N)N)NC(=O)[C@@H](NC(=O)[C@H](C)NC(=O)[C@H](CCC(=O)O)NC(=O)[C@H](CCC(=O)O)NC(=O)[C@H](CCC(=O)O)NC(=O)[C@H](CCSC)NC(=O)[C@H](CCC(N)=O)NC(=O)[C@H](CCCCN)NC(=O)[C@H](CO)NC(=O)[C@H](CC(C)C)NC(=O)[C@H](CC(=O)O)NC(=O)[C@H](CO)NC(=O)[C@@H](NC(=O)[C@H](Cc1ccccc1)NC(=O)[C@@H](NC(=O)CNC(=O)[C@H](CCC(=O)O)NC(=O)C(C)(C)NC(=O)[C@@H](N)Cc1c[nH]cn1)[C@@H](C)O)[C@@H](C)O)C(C)C)C(=O)N[C@@H](CCC(=O)O)C(=O)N[C@@H](Cc1c[nH]c2ccccc12)C(=O)N[C@@H](CC(C)C)C(=O)N[C@@H](CCCCN)C(=O)N[C@@H](CC(N)=O)C(=O)N[C@@H](CCCCN)C(=O)NC(C)(C)C(=O)N[C@@H](CC(C)C)C(=O)N[C@@H](CCC(=O)O)C(=O)N[C@@H](Cc1ccccc1)C(=O)N[C@@H](CC(C)C)C(=O)N[C@@H](CCC(=O)O)C(=O)N[C@@H](CC(C)C)C(=O)N[C@@H](CC(C)C)C(=O)O", "note": "[Compound 23, [Aib2,Glu21,Lys29,Aib30,Leu31,Glu32,Phe33,Leu34,Glu35,Leu36,Leu371-Exendin-4-(1-37)-peptide]", "values": [{"measurement": "4 h Cholesterol Efflux Emax", "result": 99, "unit": "%"}, {"measurement": "EC50", "result": 730, "unit": "nM"}]}
{"compound": "H-HAEGTFTSDVSSYLEGQAAKEFIAWLVEKVKEHLEK-OH [Compound 126, [Glu34,Lys35,Val36,Lys37]-GLP-1-(7-37)-peptidyl-Glu-His-Leu-Glu-Lys]", "values": [{"measurement": "4 h Cholesterol Efflux Emax", "result": 102, "unit": "%"}]}
{"compound": "CC[C@H](C)[C@H](NC(=O)[C@H](Cc1ccccc1)NC(=O)[C@H](CCC(=O)O)NC(=O)[C@H](CCCCN)NC(=O)[C@@H](NC(=O)[C@H](CCCCN)NC(=O)[C@H](CCC(=O)O)NC(=O)CNC(=O)[C@H](CCC(=O)O)NC(=O)[C@H](CC(C)C)NC(=O)[C@H](Cc1ccc(O)cc1)NC(=O)[C@H](CO)NC(=O)[C@H](CO)NC(=O)[C@@H](NC(=O)[C@H](CC(=O)O)NC(=O)[C@H](CO)NC(=O)[C@@H](NC(=O)[C@H](Cc1ccccc1)NC(=O)[C@@H](NC(=O)CNC(=O)[C@H](CCC(=O)O)NC(=O)C(C)(C)NC(=O)[C@@H](N)Cc1c[nH]cn1)[C@@H](C)O)[C@@H](C)O)C(C)C)C(C)C)C(=O)N[C@@H](CCC(=O)O)C(=O)N[C@@H](Cc1c[nH]cn1)C(=O)N[C@@H](CC(C)C)C(=O)N[C@H](C(=O)N[C@@H](CCC(=O)O)C(=O)N[C@@H](CCCCN)C(=O)N[C@@H](Cc1ccccc1)C(=O)N[C@@H](CCCCN)C(=O)N[C@@H](CCC(=O)O)C(=O)N[C@@H](Cc1ccccc1)C(=O)N[C@@H](Cc1ccccc1)C(N)=O)C(C)C", "note": "[Compound 96, [Aib8,Glu23,Lys24,Val25,Glu30,His31,Glu34,Lys35,Phe36,Lys37]-GLP-1-(7-37)-peptidyl-Glu-Phe-Phe amide] (H-H[Aib]EGTFTSDVSSYLEGEKVKEFIEHLVEKFKEFF-NH2)", "values": [{"measurement": "4 h Cholesterol Efflux Emax", "result": 123, "unit": "%"}]}
